Tested on: moderate-to-severe chronic spontaneous urticaria (CSU)
Experiment: Phase 2 CSU study: itch severity score over 7 days (ISS7)
Format: in vivo, human
Conditions: for Change from Baseline in ISS7 at Week 12, LS Mean Diff vs. placebo / Change from Baseline in ISS7 at Week 12, Mean / Change from Baseline in ISS7 at Week 12, LS Mean: Omalizumab-naïve population; for ISS7 change from baseline at Week 12, LS Mean / ISS7 change from baseline at Week 12, LS Mean Diff vs. placebo: ANCOVA
From the text: The study comprises a 12 week, randomized, double-blind, placebo-controlled, multi-center, dose-ranging efficacy and safety phase, followed by a 40 week open label extension (OLE) phase (see FIG. 1). The study consists of three phases and an optional OLE phase. […] Clinically, CSU is characterized by the spontaneous and recurrent appearance of pruritic hives. The proposed primary endpoints were the UAS7 at Week 12 in EU and EU reference countries and the ISS7 in the US. Regardless of where a participant was from, all assessments were the same. The UAS7 score is a composite score containing both the HSS7 and the ISS7. This allowed a global assessment of the two key components of urticaria: hives and itch. […] The UAS is a validated PRO measure. […] The daily UAS scores range from 0 to 6 point/day. […] Patients were to complete the UAS using the e-diary. […] The following secondary endpoints were to be analyzed using the same approach as for the primary endpoint: • Change from baseline in UAS7 at Week 4 • Change from baseline in UAS7 at Week 12 (for US and US reference countries) • Change from baseline in ISS7 at Week 12 (except US and US reference countries) • Change from baseline in HSS7 at Week 12

[1] = 400 mg BID, Race All the Others
[2] = 400 mg BID, Region Eastern Europe
[3] = 400 mg BID, Region Latin America
[4] = 400 mg BID, Region Western Countries
[5] = 400 mg BID, omalizumab-naïve population
[6] = 400 mg BID, omalizumab-naïve population with outlier removed
[7] = 400 mg QPM, Age group (years) <44 (Median)
[8] = 400 mg QPM, Age group (years) <65
[9] = 400 mg QPM, Age group (years) ≥44 (Median)
[10] = 400 mg QPM, Baseline BHRA BHRA+
[11] = 400 mg QPM, Baseline BHRA BHRA−
[12] = 400 mg QPM, Baseline Eosinophils (10^9/L) <0.165 (Median)
[13] = 400 mg QPM, Baseline Eosinophils (10^9/L) <0.3
[14] = 400 mg QPM, Baseline Eosinophils (10^9/L) ≥0.165 (Median)
[15] = 400 mg QPM, Baseline Eosinophils (10^9/L) ≥0.3
[16] = 400 mg QPM, Baseline H1-antihistamines dose 1-fold
[17] = 400 mg QPM, Baseline H1-antihistamines dose 2 to 4-fold standard dose
[18] = 400 mg QPM, Baseline ISS7 score <13
[19] = 400 mg QPM, Baseline ISS7 score ≥13
[20] = 400 mg QPM, Baseline Total IgE (IU/mL) <100
[21] = 400 mg QPM, Baseline Total IgE (IU/mL) <300
[22] = 400 mg QPM, Baseline Total IgE (IU/mL) ≥100
[23] = 400 mg QPM, Baseline Total IgE (IU/mL) ≥300
[24] = 400 mg QPM, Baseline UAS7 score <28
[25] = 400 mg QPM, Baseline UAS7 score ≥28
[26] = 400 mg QPM, Duration of disease (years) 2-10

Structure (SMILES): CC(C)(C=C(C#N)C(=O)N1CCC[C@@H](n2nc(-c3ccc(Oc4ccccc4)cc3F)c3c(N)ncnc32)C1)N1CCN(C2COC2)CC1 [rilzabrutinib, (R)-2-[3-[4-amino-3-(2-fluoro-4-phenoxy-phenyl)pyrazolo[3,4-d]pyrimidin-1-yl]piperidine-1-carbonyl]-4-methyl-4-[4-(oxetan-3-yl)piperazin-1-yl]pent-2-enenitrile]
- Change from Baseline in ISS7 at Week 12, LS Mean Diff vs. placebo [1]: −3.52
- Change from Baseline in ISS7 at Week 12, Mean [1]: −6.86
- Change from Baseline in ISS7 at Week 12, LS Mean (400 mg BID, Race White): −7.91
- Change from Baseline in ISS7 at Week 12, LS Mean Diff vs. placebo (400 mg BID, Race White): −1.90
- Change from Baseline in ISS7 at Week 12, Mean (400 mg BID, Race White): −7.64
- Change from Baseline in ISS7 at Week 12, LS Mean (400 mg BID, Region Asia): −6.99
- Change from Baseline in ISS7 at Week 12, LS Mean Diff vs. placebo (400 mg BID, Region Asia): −3.54
- Change from Baseline in ISS7 at Week 12, Mean (400 mg BID, Region Asia): −6.86
- Change from Baseline in ISS7 at Week 12, LS Mean [2]: −4.38
- Change from Baseline in ISS7 at Week 12, LS Mean Diff vs. placebo [2]: 8.28
- Change from Baseline in ISS7 at Week 12, Mean [2]: −10.81
- Change from Baseline in ISS7 at Week 12, LS Mean [3]: −4.75
- Change from Baseline in ISS7 at Week 12, LS Mean Diff vs. placebo [3]: 1.84
- Change from Baseline in ISS7 at Week 12, Mean [3]: −4.42
- Change from Baseline in ISS7 at Week 12, LS Mean [4]: −10.12
- Change from Baseline in ISS7 at Week 12, LS Mean Diff vs. placebo [4]: −5.57
- Change from Baseline in ISS7 at Week 12, Mean [4]: 9.95
- ISS7 at Week 12, Mean [5]: 8.09
- ISS7 at Week 12, Median [5]: 7.00
- ISS7 change from baseline at Week 12, Mean [5]: −7.40
- ISS7 change from baseline at Week 12, Median [5]: −7.00
- LS mean reduction in ISS7 (see Table 30) [5]: −5.06
- ISS7 at Week 12, Mean [6]: 8.09
- ISS7 at Week 12, Median [6]: 7.00
- ISS7 change from baseline at Week 12, Mean [6]: −7.40
- ISS7 change from baseline at Week 12, Median [6]: −7.00
- ISS7 change from baseline at Week 12, LS Mean [6]: −7.76 points
- ISS7 change from baseline at Week 12, LS Mean Diff vs. placebo [6]: −2.05
- ISS7 change from baseline at Week 12, LS Mean [5]: −7.73 points
- ISS7 change from baseline at Week 12, LS Mean Diff vs. placebo [5]: −1.96
- Change from Baseline in ISS7 at Week 12, LS Mean [7]: −4.68
- Change from Baseline in ISS7 at Week 12, LS Mean Diff vs. placebo [7]: −0.21
- Change from Baseline in ISS7 at Week 12, Mean [7]: −5.45
- Change from Baseline in ISS7 at Week 12, LS Mean [8]: −4.78
- Change from Baseline in ISS7 at Week 12, LS Mean Diff vs. placebo [8]: 0.88
- Change from Baseline in ISS7 at Week 12, Mean [8]: −5.68
- Change from Baseline in ISS7 at Week 12, LS Mean [9]: −4.77
- Change from Baseline in ISS7 at Week 12, LS Mean Diff vs. placebo [9]: 1.83
- Change from Baseline in ISS7 at Week 12, Mean [9]: −5.95
- Change from Baseline in ISS7 at Week 12, Mean (400 mg QPM, Age group (years) ≥65): −5.83
- Change from Baseline in ISS7 at Week 12, LS Mean [10]: −8.50
- Change from Baseline in ISS7 at Week 12, LS Mean Diff vs. placebo [10]: −3.12
- Change from Baseline in ISS7 at Week 12, Mean [10]: −9.13
- Change from Baseline in ISS7 at Week 12, LS Mean [11]: −4.66
- Change from Baseline in ISS7 at Week 12, Mean [11]: −5.45
- Change from Baseline in ISS7 at Week 12, LS Mean Diff vs. placebo (400 mg QPM, Baseline BMI (kg/m^2) ≥30): 0.17
- Change from Baseline in ISS7 at Week 12, LS Mean [12]: −4.00
- Change from Baseline in ISS7 at Week 12, LS Mean Diff vs. placebo [12]: 2.51
- Change from Baseline in ISS7 at Week 12, Mean [12]: −4.93
- Change from Baseline in ISS7 at Week 12, LS Mean [13]: −4.64
- Change from Baseline in ISS7 at Week 12, LS Mean Diff vs. placebo [13]: 0.83
- Change from Baseline in ISS7 at Week 12, Mean [13]: −5.66
- Change from Baseline in ISS7 at Week 12, LS Mean [14]: −5.54
- Change from Baseline in ISS7 at Week 12, LS Mean Diff vs. placebo [14]: −1.46
- Change from Baseline in ISS7 at Week 12, Mean [14]: 6.55
- Change from Baseline in ISS7 at Week 12, LS Mean [15]: −5.53
- Change from Baseline in ISS7 at Week 12, LS Mean Diff vs. placebo [15]: −0.68
- Change from Baseline in ISS7 at Week 12, Mean [15]: −5.81
- Change from Baseline in ISS7 at Week 12, LS Mean [16]: −4.24
- Change from Baseline in ISS7 at Week 12, LS Mean Diff vs. placebo [16]: 2.59
- Change from Baseline in ISS7 at Week 12, Mean [16]: −5.09
- Change from Baseline in ISS7 at Week 12, LS Mean [17]: −5.28
- Change from Baseline in ISS7 at Week 12, LS Mean Diff vs. placebo [17]: −1.80
- Change from Baseline in ISS7 at Week 12, Mean [17]: −6.37
- Change from Baseline in ISS7 at Week 12, LS Mean [18]: −1.87
- Change from Baseline in ISS7 at Week 12, LS Mean Diff vs. placebo [18]: 0.85
- Change from Baseline in ISS7 at Week 12, Mean [18]: −4.42
- Change from Baseline in ISS7 at Week 12, LS Mean [19]: −5.38
- Change from Baseline in ISS7 at Week 12, LS Mean Diff vs. placebo [19]: 0.36
- Change from Baseline in ISS7 at Week 12, Mean [19]: −5.78
- Change from Baseline in ISS7 at Week 12, LS Mean [20]: −3.37
- Change from Baseline in ISS7 at Week 12, LS Mean Diff vs. placebo [20]: 0.87
- Change from Baseline in ISS7 at Week 12, Mean [20]: −4.48
- Change from Baseline in ISS7 at Week 12, LS Mean [21]: −4.46
- Change from Baseline in ISS7 at Week 12, LS Mean Diff vs. placebo [21]: 0.05
- Change from Baseline in ISS7 at Week 12, Mean [21]: −5.41
- Change from Baseline in ISS7 at Week 12, LS Mean [22]: −5.51
- Change from Baseline in ISS7 at Week 12, LS Mean Diff vs. placebo [22]: 0.52
- Change from Baseline in ISS7 at Week 12, Mean [22]: −6.28
- Change from Baseline in ISS7 at Week 12, LS Mean [23]: −4.90
- Change from Baseline in ISS7 at Week 12, LS Mean Diff vs. placebo [23]: 1.64
- Change from Baseline in ISS7 at Week 12, Mean [23]: −6.11
- Change from Baseline in ISS7 at Week 12, LS Mean [24]: −3.33
- Change from Baseline in ISS7 at Week 12, LS Mean Diff vs. placebo [24]: −0.15
- Change from Baseline in ISS7 at Week 12, Mean [24]: −5.32
- Change from Baseline in ISS7 at Week 12, LS Mean [25]: −5.59
- Change from Baseline in ISS7 at Week 12, LS Mean Diff vs. placebo [25]: 1.01
- Change from Baseline in ISS7 at Week 12, Mean [25]: −5.78
- Change from Baseline in ISS7 at Week 12, LS Mean [26]: −5.24
- Change from Baseline in ISS7 at Week 12, LS Mean Diff vs. placebo [26]: 1.79
- Change from Baseline in ISS7 at Week 12, Mean [26]: −6.43

From patent US20260256792A1, “TREATMENT OF CHRONIC SPONTANEOUS URTICARIA BY ADMINISTERING (R)-2-[3-[4-AMINO-3-(2-FLUORO-4-PHENOXY-PHENYL)PYRAZOLO[3,4-D]PYRIMIDIN-1-YL]PIPERIDINE-1-CARBONYL]-4-METHYL-4-[4-(OXETAN-3-YL)PIPERAZIN-1-YL]PENT-2-ENENITRILE” (priority 2023, published 2026)
